Assays:
Assay type in all cases: functional
Rattus norvegicus [1] = assay: Percent protection against thioacetamide-induced toxicity in rats using glutamate oxaloacetate transaminase (GOT) when peroral administration of compound 6 mg/kg for 7 days; conditions: route oral
Rattus norvegicus [2] = assay: Percent protection against thioacetamide-induced toxicity in rats using glutamate pyruvate transaminase (GPT) when peroral administration of compound 6 mg/kg for 7 days; conditions: route oral
Rattus norvegicus [3] = assay: Percent protection against thioacetamide-induced toxicity in rats using glutamate dehydrogenase (GIDH) when peroral administration of compound 6 mg/kg for 7 days; conditions: route oral
Rattus norvegicus [4] = assay: Percent protection against thioacetamide-induced toxicity in rats using alkaline phosphatase (ALP) when peroral administration of compound 6 mg/kg for 7 days; conditions: route oral
Rattus norvegicus [5] = assay: Percent protection against thioacetamide-induced toxicity in rats using acid phosphatase(ACP) at peroral dose of 6 mg/kg for 7 days of compound; conditions: route oral
Rattus norvegicus [6] = species: Rattus norvegicus; assay: Percent protection against thioacetamide-induced toxicity in rats using acid phosphatase(ACP); set-up: concentration or dose not given beside the values
Rattus norvegicus [7] = assay: Percent protection in alcohol-induced model using glutamate oxaloacetate transaminase(GOT) when peroral administration of compound 12 mg/kg for 7 days; conditions: route oral
Rattus norvegicus [8] = assay: Percent protection in carbon tetrachloride-induced model using glutamate dehydrogenase(GIDH) when peroral administration of compound 6 mg/kg for 7 days; conditions: route oral
Rattus norvegicus [9] = assay: Percent protection in paracetamol-induced model using acid phosphatase(ACP) when peroral administration of compound 6 mg/kg for 7 days; conditions: route oral
Rattus norvegicus [10] = assay: Percent protection in galactosamine-induced model using alkaline phosphatase(ALP) when peroral administration of compound 6 mg/kg for 7 days; conditions: route oral
Rattus norvegicus [11] = assay: Percent protection in alcohol-induced model using acid phosphatase(ACP) when peroral administration of compound 12 mg/kg for 7 days; conditions: route oral
Rattus norvegicus [12] = assay: Percent protection in carbon tetrachloride-induced model using glutamate pyruvate transaminase(GPT) when peroral administration of compound 6 mg/kg for 7 days; conditions: route oral
Rattus norvegicus [13] = assay: Percent protection in galactosamine-induced model using glutamate pyruvate transaminase(GPT) when peroral administration of compound 6 mg/kg for 7 days; conditions: route oral
Rattus norvegicus [14] = assay: Percent protection in paracetamol-induced model using glutamate dehydrogenase(GIDH) when peroral administration of compound 6 mg/kg for 7 days; conditions: route oral
Rattus norvegicus [15] = assay: Percent protection in alcohol-induced model using glutamate oxaloacetate transaminase(GOT) when peroral administration of compound 6 mg/kg for 7 days; conditions: route oral
Rattus norvegicus [16] = assay: Percent protection in alcohol-induced model using acid phosphatase(ACP) at peroral dose of 6 mg/kg for 7 days; conditions: route oral
Rattus norvegicus [17] = assay: Percent protection in carbon tetrachloride-induced model using glutamate oxaloacetate transaminase(GOT) when peroral administration of compound 6 mg/kg for 7 days; conditions: route oral
Rattus norvegicus [18] = assay: Percent protection in alcohol-induced model using glutamate dehydrogenase(GIDH) when peroral administration of compound 12 mg/kg for 7 days; conditions: route oral
Rattus norvegicus [19] = assay: Percent protection in paracetamol-induced model using alkaline phosphatase(ALP) at peroral dose of 6 mg/kg for 7 days; conditions: route oral
Rattus norvegicus [20] = assay: Percent protection in alcohol-induced model using glutamate dehydrogenase(GIDH) when peroral administration of compound 6 mg/kg for 7 days; conditions: route oral
Rattus norvegicus [21] = assay: Percent protection in galactosamine-induced model using glutamate oxaloacetate transaminase(GOT) when peroral administration of compound 6 mg/kg for 7 days; conditions: route oral
Rattus norvegicus [22] = assay: Percent protection in alcohol-induced model using glutamate pyruvate transaminase(GPT) when peroral administration of compound 6 mg/kg for 7 days; conditions: route oral
Rattus norvegicus [23] = assay: Percent protection in paracetamol-induced model using glutamate oxaloacetate transaminase(GOT) when peroral administration of compound 6 mg/kg for 7 days; conditions: route oral
Rattus norvegicus [24] = assay: Percent protection in alcohol-induced model using glutamate pyruvate transaminase(GPT) at peroral dose of 12 mg/kg for 7 days; conditions: route oral
Rattus norvegicus [25] = assay: Percent protection in carbon tetrachloride-induced model using alkaline phosphatase(ALP) when peroral administration of compound 6 mg/kg for 7 days; conditions: route oral
Rattus norvegicus [26] = assay: Percent protection in galactosamine-induced model using glutamate dehydrogenase(GIDH) when peroral administration of compound 6 mg/kg for 7 days; conditions: route oral
Rattus norvegicus [27] = assay: Percent protection in alcohol-induced model using alkaline phosphatase(ALP) when peroral administration of compound 6 mg/kg for 7 days; conditions: route oral
Rattus norvegicus [28] = assay: Percent protection in paracetamol-induced model using glutamate pyruvate transaminase(GPT) when peroral administration of compound 6 mg/kg for 7 days; conditions: route oral
Rattus norvegicus [29] = assay: Percent protection in alcohol-induced model using alkaline phosphatase(ALP) when peroral administration of compound 12 mg/kg for 7 days; conditions: route oral
Rattus norvegicus [30] = assay: Percent protection in carbon tetrachloride-induced model using acid phosphatase(ACP) when peroral administration of compound 6 mg/kg for 7 days; conditions: route oral

CSc1cc(-c2ccc(Br)cc2)oc(=O)c1Cl
Protection (Rattus norvegicus [1]): 30% | Protection (Rattus norvegicus [2]): 40% | Protection (Rattus norvegicus [3]): 26% | Protection (Rattus norvegicus [4]): 19% | Protection (Rattus norvegicus [5]): 30%

CSc1cc(-c2cccnc2)oc(=O)c1C#N
Protection (Rattus norvegicus [6]): 38% | Protection (Rattus norvegicus [1]): 12% | Protection (Rattus norvegicus [2]): 12% | Protection (Rattus norvegicus [3]): 51% | Protection (Rattus norvegicus [4]): 0%

CCOC(=O)c1c(SC)c(C#N)c(-c2ccc(Cl)cc2)oc1=O
Protection (Rattus norvegicus [6]): 30% | Protection (Rattus norvegicus [1]): 14% | Protection (Rattus norvegicus [2]): 19% | Protection (Rattus norvegicus [3]): 16% | Protection (Rattus norvegicus [4]): 0%

CSc1cc(-c2ccc(Cl)cc2)oc(=O)c1Cl
Protection (Rattus norvegicus [1]): 36% | Protection (Rattus norvegicus [2]): 51% | Protection (Rattus norvegicus [3]): 27% | Protection (Rattus norvegicus [4]): 40% | Protection (Rattus norvegicus [5]): 38%

COc1cc([C@H]2Oc3cc([C@H]4Oc5cc(O)cc(O)c5C(=O)[C@@H]4O)ccc3O[C@@H]2CO)ccc1O [SILYBIN A]
Protection (Rattus norvegicus [6]): 61% | Protection (Rattus norvegicus [7]): 62% | Protection (Rattus norvegicus [8]): 51% | Protection (Rattus norvegicus [9]): 67% | Protection (Rattus norvegicus [10]): 33% | Protection (Rattus norvegicus [11]): 64% | Protection (Rattus norvegicus [12]): 64% | Protection (Rattus norvegicus [1]): 50.14% | Protection (Rattus norvegicus [13]): 45% | Protection (Rattus norvegicus [2]): 47.25% | Protection (Rattus norvegicus [14]): 60% | Protection (Rattus norvegicus [15]): 43% | Protection (Rattus norvegicus [16]): 49% | Protection (Rattus norvegicus [17]): 48% | Protection (Rattus norvegicus [18]): 59% | Protection (Rattus norvegicus [19]): 50% | Protection (Rattus norvegicus [20]): 49% | Protection (Rattus norvegicus [21]): 47% | Protection (Rattus norvegicus [3]): 38.81% | Protection (Rattus norvegicus [22]): 59% | Protection (Rattus norvegicus [4]): 47% | Protection (Rattus norvegicus [23]): 46% | Protection (Rattus norvegicus [5]): 43.25% | Protection (Rattus norvegicus [24]): 78% | Protection (Rattus norvegicus [25]): 51% | Protection (Rattus norvegicus [26]): 65% | Protection (Rattus norvegicus [27]): 62% | Protection (Rattus norvegicus [28]): 49% | Protection (Rattus norvegicus [29]): 77% | Protection (Rattus norvegicus [30]): 57%

CSc1cc(-c2cccs2)oc(=O)c1C#N
Protection (Rattus norvegicus [6]): 10% | Protection (Rattus norvegicus [1]): 37% | Protection (Rattus norvegicus [2]): 74% | Protection (Rattus norvegicus [3]): 100% | Protection (Rattus norvegicus [4]): 33%

CSc1cc(-c2ccc(Cl)cc2)oc(=S)c1Cl
Protection (Rattus norvegicus [6]): 25% | Protection (Rattus norvegicus [1]): 29% | Protection (Rattus norvegicus [2]): 26% | Protection (Rattus norvegicus [3]): 12% | Protection (Rattus norvegicus [4]): 10%

CSc1cc(-c2cccs2)oc(=O)c1Br
Protection (Rattus norvegicus [6]): 25% | Protection (Rattus norvegicus [1]): 50% | Protection (Rattus norvegicus [2]): 55% | Protection (Rattus norvegicus [3]): 4% | Protection (Rattus norvegicus [4]): 37%

CSc1cc(-c2ccncc2)oc(=O)c1C#N
Protection (Rattus norvegicus [1]): 0% | Protection (Rattus norvegicus [2]): 0% | Protection (Rattus norvegicus [3]): 0% | Protection (Rattus norvegicus [4]): 12% | Protection (Rattus norvegicus [5]): 0%

CSc1cc(-c2ccc(Cl)cc2)oc(=O)c1Br
Protection (Rattus norvegicus [6]): 48% | Protection (Rattus norvegicus [1]): 70% | Protection (Rattus norvegicus [2]): 80% | Protection (Rattus norvegicus [3]): 51% | Protection (Rattus norvegicus [4]): 100%

CSc1cc(-c2ccc(Cl)cc2)oc(=O)c1C(N)=O
Protection (Rattus norvegicus [6]): 10% | Protection (Rattus norvegicus [1]): 16% | Protection (Rattus norvegicus [2]): 15% | Protection (Rattus norvegicus [3]): 0% | Protection (Rattus norvegicus [4]): 17%

CSc1cc(-c2ccncc2)oc(=O)c1Br
Protection (Rattus norvegicus [6]): 53% | Protection (Rattus norvegicus [1]): 48% | Protection (Rattus norvegicus [2]): 0% | Protection (Rattus norvegicus [3]): 16% | Protection (Rattus norvegicus [4]): 12%
